Results taken from patent US9796674B2, “Benzyl urea derivatives for activating TGF-beta signaling” (THE BOARD OF TRUSTEES OF THE LELAND STANFORD JUNIOR …, priority 2013, dated 2017).
In brackets after ≈: the same amount, converted by molar mass.

Columns and labels:
[1] = tested on: APP751Lon,Swe transgenic mice; assay: Efficacy in APP751Lon,Swe transgenic mouse model; assay type: in vivo; details: for Y-maze working memory (spontaneous alternations): po 3 times per week
Excerpt: Transgenic mouse models over-producing human APP-containing mutations found in families with autosomal dominant AD reproduce important aspects of AD, including amyloid plaques, neurodegeneration, and cognitive deficits. Transgenic mice which overexpress human APP751^V717I, K670M/N671L (aka London and Swedish mutations) in neurons under control of a Thy1.2 promoter, specifically Line 41 generated according to Rockenstein et al., (2001) J. Neurosci. Res. 66: 573-582, incorporated herein by reference in its entirety, develop amyloid pathology, neurodegeneration, and cognitive deficits (Rockenstein et al. 2001). These mice (short APP751^Lon,Swe) have been studied by multiple laboratories (Pickford et al. (2008) J. Clin. Invest. doi:10.1172/JCI33585; Knowles et al., (2009) J. Neuroscience 29: 10627-10637) and have been used as a model for drug development.
Compound SRI-011381 was dissolved in a vehicle containing 15% solutol and 85% water. The formulated compound was administered orally to APP751^Lon,Swe transgenic mice or littermate non-transgenic controls (male, 6.5-7.5 months of age) at 0 (vehicle only), 10, 30 mg/kg of body weight 3 times per week for 10 weeks (n=7-11 mice per group). Behavioral studies started at this point. Oral gavage of the compound continued throughout the course of the studies until the mice were sacrificed 17 weeks after treatment had been initiated (thus mice were treated for roughly 4 months total before they were sacrificed). Plasma samples were collected for future proteomic assays. One hemibrain was fixed in 4% PFA for 48 h and kept in 2% PFA at 4° C. for neuropathologcial analysis. The other hemibrain was snap frozen. Both the serum and frozen brain samples were placed into −80° C. freezer for long-term storage.
To determine the effects of SRI-011381 (381) treatment on AD-like pathology brains from APP751^Lon,Swe transgenic and non-transgenic littermate control mice treated with vehicle, 10 mg/kg, or 30 mg/kg of compound were sectioned into 40 μm free-floating sections with a vibratome. Brain sections were stained with antibodies against Aβ, phosphorylated tau (PHF1), calbindin, microtubule associated protein2 (MAP2), synaptophysin (SY38), NeuN, and Iba1. In addition, hippocampus and neocortex from one hemibrain from APP751^Lon,Swe mice were homogenized with guanidine, and levels of Aβ1-42 and Aƒβ1-x were measured by ELISA.

[2] = tested on: N2A-APP-Swe cells; assay: Neurotoxicity of macrophage-conditioned medium (MTS assay); assay type: cell-based, mouse
Method: FIGS. 4A and 4B present data from experiments in which human macrophages differentiated from THP-1 monocytic cell lines and mouse J774A.1 macrophages were incubated with fibrillar Aβ in the absence or presence of compound (2 or 5 μM) for 24 h. Conditioned medium was harvested and the remaining Aβ was quantified by Aβ ELISA. The collected medium (FIGS. 4C-4D) was added to N2A-APP-Swe cells (mouse Neuro-2A neuroblastoma cells stably expressing Swedish APP695) and incubated for 24 h. Neurotoxicity was quantified by an MTS Assay.
Mouse J774A.1 macrophages and human macrophages that were differentiated from THP-1 monocytic cell lines were treated with fibrillar Aβ42 in the absence or presence of SRI-011382 or its derivative compounds (2, 5, or 10 μM) for 24 h. Conditioned medium was harvested and the remaining Aβ42 that was not phagocytosed by macrophages was quantified by Aβ42 ELISA kit (Invitrogen). Data was normalized to control medium containing the input amount of Aβ42. Neurotoxicity induced by fibrillar Aβ42 in the conditioned medium was then assessed by incubating Neuro-2a neuroblastoma cells with conditioned medium for 24 h followed by MTS-based viability assay. Data was normalized to control cells without fibrillar Aβ42 treatment.

[3] = Solubility; assay type: physicochemical; details: aqueous buffer; in PBS
[4] = PAMPA-BBB permeability assay; assay type: in vitro ADME
Method: Permeability Assays: PAMPA screens, both for absorption from the gut and through blood brain barrier, were used as a first tier screen for this program. SRI-011381 was evaluated in the double sink assay format and the sum of the permeability coefficients at three pH values (7.4, 6.2, 5.0) was calculated (Pe) to be 781×10^−6 cm/s, which is consistent with an orally available compound.
Permeability PAMPA: The PAMPA assay was used to predict oral bioavailability of compounds. The PAMPA determines the permeability of compounds across a biological membrane using a synthetic lipid membrane and detection by UV absorbance. […] The PAMPA-BBB assay was performed, to predict permeability to the blood brain barrier, as an aqueous assay and as a co-solvent assay. In this assay the composition of the lipid membrane included brain-derived lipids, mimicking the BBB membrane.

[5] = Dose escalation and 14-day MTD study in female FVB mice; assay type: in vivo; details: female, FVB, mouse, in vivo; daily oral dose for 14 days
Method: In Vivo Range Finding Toxicity Studies in Mice and Rats: Dose escalation and 14-day MTD study of SRI-011381 and SRI-011382 in female FVB mice: The objectives of this study were to determine the maximum tolerated dose (MTD) and a no observable adverse effect level (NOAEL) in female FVB mice following a daily oral dose administration for 14 consecutive days. An initial dose escalation was performed with intraperitoneal (ip), oral (po), and intravenous (iv) dose routes for a single-dose MTD of SRI-011381 and SRI-011382.
Subsequently, three dose levels (10, 30, and 75 mg/kg) and a vehicle control group were used in the 14-day oral dose administration to determine the MTD and NOAEL based on changes in bodyweight, clinical observations, serum chemistry, hematology and gross organ physiology in 5 female mice per treatment group.
The objectives of this study were to determine maximum tolerated dose (MTD) and a no observable adverse effect level (NOAEL) in female FVB mice following a daily oral dose administration for 14 consecutive days. After a dose escalation single dose study with doses up to 400 mg/kg, three dose levels were selected for the repeat dose study, 10, 30 and 75 mg/kg, administered […]. The MTD is the maximum dose administered that results in less than 10% body weight loss compared to controls and no other dose limiting adverse effects (e.g. clinical pathology).

O=C(NC1CCCCC1)N(Cc1ccccc1)CC1CCNCC1 [SRI-011381, 1-Benzyl-3-cyclohexyl-1-(piperidin-4-ylmethyl)urea]
fear conditioning: context memory ([1]; 10 mg/kg): significantly improved
rescue of working memory deficit (Y-maze) ([1]; 10 mg/kg po 3 times per week, 10 weeks): > 50%
fear conditioning: cued memory to the tone ([1]; 10 or 30 mg/kg): no significant differences
fear conditioning: learning of the tone response (freezing, tone 4) ([1]; 10 or 30 mg/kg): completely absent
Aβ immunoreactivity in hippocampus and cortex ([1]; 10 or 30 mg/kg, about 4 months): trend was seen towards lower levels
Aβ levels by ELISA in hippocampus and cortex ([1]; 10 or 30 mg/kg, about 4 months): non-significant trends towards lower Aβ levels
increase in expression of PHF1 ([1]; 10 or 30 mg/kg, about 4 months): almost completely absent
level of Iba1 ([1]; 10 or 30 mg/kg, about 4 months): did not significantly change
levels of calbindin, synaptophysin, MAP-2 and NeuN ([1]; 10 or 30 mg/kg, about 4 months): significantly higher levels of these neuronal markers
fear conditioning: cued memory to the tone ([1]; 10 or 30 mg/kg, listed as 381): No freezing difference
fear conditioning: learning of the tone response (freezing, tone 4) ([1]; 10 or 30 mg/kg, listed as 381): significant increase in freezing
rescue of contextual memory deficit ([1]; oral): greater than 50%
Y-maze working memory (spontaneous alternations) ([1]; 10 weeks): not significantly impaired compared with littermate non-transgenic controls
Y-maze working memory (spontaneous alternations) ([1]; 10 weeks, listed as 381): improved
neurodegeneration ([1]; two dose levels, 4-month-period of treatment): marked amelioration of neurodegeneration
fibrillar Aβ42-induced neurotoxicity ([2]; medium conditioned by J774A.1 macrophages): protect human neuronal cells from fibrillar Aβ42-induced neurotoxicity
fibrillar Aβ42-induced neurotoxicity ([2]; medium conditioned by THP-1 macrophages): protect human neuronal cells from fibrillar Aβ42-induced neurotoxicity
solubility [3]: 5200 µg/mL (≈ 15.8 mM)
PAMPA-BBB Pe [4]: 4.2±2.2 ×10^−6 cm/s
Papp ([4]; PAMPA, read-out: PAMPA-BBB Pe): 4.2 ± 2.2 ×10⁻⁶ cm/s
NOAEL at 14 days [5]: < 30 mg/kg
